Assay results as given in PubChem BioAssay AID1963972 (Molecular Pharmacology Branch, DTP, NCI, 2024).

Tested on: 945468-187-T-J2-PDC spheroids viability
Assay: Anticancer human tumor 945468-187-T-J2-PDC patient-derived rectal carcinoma cell line growth inhibition [PI3K]
Conditions: spheroids with HUVEC and MSC; for IC50: curve of first compound; for viability, T/C: stronger effect = lower value
Summary of the method: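 Combination activity was assessed by viability in multicellular tumor spheroids carrying HUVEC and MSC components. Agents were tested with PI3K inhibitors from a Cmax-based top dose (or 10 microM) downward in half-log increments.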
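Further: spheroids exposed to compounds for seven days before reading.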

C[C@@H](NC(=O)c1ncnc(N)c1Cl)c1ncc(C(=O)Nc2cc(C(F)(F)F)c(Cl)cn2)s1 + CC(Nc1ccc2c(c1)OCCn1cc(N3C(=O)OCC3C(F)F)nc1-2)C(N)=O
IC50 (second compound 0.00316 µM): > 10 µM
IC50 (second compound 0.01 µM): > 10 µM
IC50 (second compound 0.0316 µM): > 10 µM
IC50 (second compound 0.1 µM): > 10 µM
IC50 (second compound 0.316 µM): > 10 µM
IC50 (second compound 1 µM): > 10 µM
viability, T/C (second compound 0.00316 µM, first compound 0.0316 µM): 94.6%
viability, T/C (second compound 0.00316 µM, first compound 0.1 µM): 117%
viability, T/C (second compound 0.00316 µM, first compound 0.316 µM): 127%
viability, T/C (second compound 0.00316 µM, first compound 1 µM): 75.7%
viability, T/C (second compound 0.00316 µM, first compound 3.16 µM): 136%
viability, T/C (second compound 0.00316 µM, first compound 10 µM): 96.7%
viability, T/C (second compound 0.01 µM, first compound 0.0316 µM): 99.2%
viability, T/C (second compound 0.01 µM, first compound 0.1 µM): 71.4%
viability, T/C (second compound 0.01 µM, first compound 0.316 µM): 115%
viability, T/C (second compound 0.01 µM, first compound 1 µM): 87.5%
viability, T/C (second compound 0.01 µM, first compound 3.16 µM): 98.3%
viability, T/C (second compound 0.01 µM, first compound 10 µM): 108%
viability, T/C (second compound 0.0316 µM, first compound 0.0316 µM): 84.9%
viability, T/C (second compound 0.0316 µM, first compound 0.1 µM): 104%
viability, T/C (second compound 0.0316 µM, first compound 0.316 µM): 115%
viability, T/C (second compound 0.0316 µM, first compound 1 µM): 103%
viability, T/C (second compound 0.0316 µM, first compound 3.16 µM): 112%
viability, T/C (second compound 0.0316 µM, first compound 10 µM): 90.3%
viability, T/C (second compound 0.1 µM, first compound 0.0316 µM): 105%
viability, T/C (second compound 0.1 µM, first compound 0.1 µM): 112%
viability, T/C (second compound 0.1 µM, first compound 0.316 µM): 104%
viability, T/C (second compound 0.1 µM, first compound 1 µM): 96.8%
viability, T/C (second compound 0.1 µM, first compound 3.16 µM): 97.7%
viability, T/C (second compound 0.1 µM, first compound 10 µM): 93%
viability, T/C (second compound 0.316 µM, first compound 0.0316 µM): 72.5%
viability, T/C (second compound 0.316 µM, first compound 0.1 µM): 103%
viability, T/C (second compound 0.316 µM, first compound 0.316 µM): 105%
viability, T/C (second compound 0.316 µM, first compound 1 µM): 88.2%
viability, T/C (second compound 0.316 µM, first compound 3.16 µM): 86.7%
viability, T/C (second compound 0.316 µM, first compound 10 µM): 97.2%
viability, T/C (second compound 1 µM, first compound 0.0316 µM): 68.7%
viability, T/C (second compound 1 µM, first compound 0.1 µM): 73.4%
viability, T/C (second compound 1 µM, first compound 0.316 µM): 67.5%
viability, T/C (second compound 1 µM, first compound 1 µM): 79.3%
viability, T/C (second compound 1 µM, first compound 3.16 µM): 94.4%
viability, T/C (second compound 1 µM, first compound 10 µM): 83.9%
